From patent US8017786B2, “Substituted β-phenyl-α-hydroxy-propanoic acid, synthesis method and use thereof” (Northwest University, priority 2006, dated 2011)

Experiments:
Format in all cases: in vivo, rat
[1] = tested on: rats with cardiac ischemia reperfusion (I/R) injury; assay: Myocardial infarction areas caused by cardiac muscle I/R; details: 1 mL/kg, 5 days; ischemia 30 min, reperfusion 30 min
Experimental: (§1) 52 SD rats having a body weight of 220±20 g were randomly divided into model control group, salviannic acid injection group (in 1 mL/kg), and group of bornyl β-(3,4-dihydroxylphenyl)-α-hydroxylpropionate ester at a small, middle and large dose (ip 5, 15, 35 mg/kg). The rats of the normal group and the model control group were ip administered with equal-volume of physiologic saline. The rats of all groups were administered for consecutive 5 days. When the rats were administered for the last time, they were simultaneously anesthetized with 1.5% pentobarbital sodium (ip 45 mg/kg), then a catheter was inserted into the right carotid artery, and connected via a transducer to an eight-channeled physiological recorder. Tracheal cannula was performed, and the ventilation rate was maintained at 60 times/min. The chest was opened, a 6/0 suture was used to form a loop at a site 1˜2 mm from the root of the anterior descending coronary artery, and a plastic pipe was introduced through the loop, then the loop was tightened up. The change of electrocardiogram was observed. An increase or decrease of ST indicated the success of ligation. The color of the myocardial tissue below the ligation suture became darker. 30 minutes later, the plastic pipe was pulled out to allow coronary artery blood flowing again and cause hyperemia of local tissue during reperfusion. For the groups subjected to ischemia for 30 min and reperfusion for 30 min, the myocardial infarction areas were recorded before the test, after ischemia for 1 min and 30 min, and after reperfusion for 30 min; for the groups subjected to ischemia for 30 min and reperfusion for 2 h, cardiac tissue samples were taken and fixed using 10% formalin, embedded with paraffin, serially sliced into sections with a thickness of 4 μm, and separately subjected to immunohistochemistry tests; the rats of the sham operation group were subjected only to the introduction of suture but their coronary arteries were not ligated.
After the rats were subjected to ischemia and reperfusion for 30 minutes, their anterior descending coronaries were ligated again, then they were sacrificed, their hearts were removed promptly, and 0.5 mL of 1% evans blue was injected into heart chambers via aorta to distinguish the ischemic regions and the non-ischemic regions. After the heart atrium and right ventricle were cut-off, the heart was refrigerated at −20° C. for 30 min, then placed in a tailor-made slice groove, and cut along the long axis to form 2 mm slices. The slices were immersed in 1% TTC phosphoric acid buffer solution (pH7.4), and incubated at 37° C. for 30 min to distinguish risky regions and necrotic regions. Then the slices were fixed with 10% formaldehyde for 24 h to enhance staining color for contrast photography. After the above treatment, the myocardial tissue was divided into: normal myocardia in blue, ischemic myocardia in light red, and necrotic myocardion in gray. A computer image analysis software was used to calculate the percentage of the area of the infarct myocardial region (nec) based on the area of the risky myocardial region (aar, i.e., ischemic myocardia, including ischemic infarct region and ischemic non-infarct region) (nec/aar), and the percentage of the area of the infarct myocardial region based on the whole area of the myocardia (nec/lv) to indicate the degree of infarct, as well as the percentage of the area of the risky myocardia based on the area of the left ventricle (aar/lv).

[2] = tested on: caspase-3; assay: Immunohistochemistry protein expression in I/R myocardial tissue: caspase-3; details: 1 mL/kg, 5 days; ischemia 30 min, reperfusion 2 h
Experimental: as §1
(§2) Standard immunohistochemistry ABC and SP methods were employed for staining. Bax: anti-rabbit polyclonal antibody (Santa CruzBio. Inc.) at a dilution of 1:200; […]: anti-rabbit polyclonal antibody (TBD Tianjin Biotechnological Center). At a dilution of […]; caspase-3: anti-rabbit polyclonal antibody (Normarkers Fromont, Calif.), at a dilution of 1:200; MMP-2: anti-murine monoclonal antibody (NormarkersFromont, Calif.) at a dilution of 1:200; PPARγ: anti-caprine polyclonal antibody (Santa Cruz Bio. Inc.), at a dilution of 1:500. The specific procedures were performed in accordance with the instructions of the ABC and SP kits, DAB was used for color development, and neutral resin was used for mounting. PBS was used instead of the first antibody as a negative control. Cells with positive expression of the test polypeptides were of brown-yellow color, with MMP-2 protein being present in acytoplasm, Bcl-2 expressed in nuclear membrane and cytoplasm, Bax mainly in cytoplasm and partially in nucleus, and caspase-3 mainly in nucleus and partially in cytoplasm. CMIAS image analysis system was used for random selection of fields of slices and automatic selection of sites for analysis, and statistic analysis was performed by using mean optical density values or integral optical density values of the obtained myocardial tissue slices.

[3] = tested on: rats with middle cerebral artery occlusion; assay: Cerebral microcirculatory blood flow in rats with middle cerebral artery occlusion; details: 1 mL/kg ip
Experimental: 60 SD rats with a body weight of 220±20 g were randomly divided into normal control group, model control group, salvianic acid injection group (ip. 1 mL/kg), and group of bornyl β-(3,4-dihydroxylphenyl)-α-hydroxylpropionate ester at a small, middle and large dose respectively (ip. 5, 15, and 35 mg/kg). The rats of normal group and model group were administered with equal-volume of physiologic saline by ip. The rats were anesthetized by intraperitoneal injection of 1% pentobarbital sodium at an amount of 40 mg/kg, then placed at supine position, head fixed, and cut skin along cervical middle line. Trachea cannula, was inserted into the rats and they were allowed to spontaneous respire. Right common jugular vein and common carotid artery were isolated and a suture was introduced for later use. Animals were fixed on a rat stereotaxic apparatus, a cranial window with a size of 6×8 mm was opened at the right temple with a dental drill, after hemostasis, cerebral dura mater was cut open with scissors to expose cerebral pia mater. The window was covered and sealed with glass and dental cement, and the laser probe of a laser-doppler microcirculatory blood flow meter was fixed on the cranial window. Then the animals were fixed at lateral position, the right common carotid artery was lifted, ligated at the proximal part and carefully cut with scissors, a nylon suture having a diameter of about 0.3 mm was introduced into the artery. The distance between the artery cut and the paropia of the rats was marked before the suture was introduced. […] When the suture arrived at middle cerebral artery, an abrupt decrease of the microcirculatory blood flow would be observed. After the observation of a decrease in the microcirculatory blood flow, the suture was further penetrated by about 1 mm, and the distal end of the cut and the suture in the artery were ligated securely. Spare suture was cut-off. After the end of the test, it was checked whether the nylon suture blocked the initiation site of the middle cerebral artery, and the data of any animal whose artery was not blocked were cancelled. The animals of the control group were not treated. After the cranial window was prepared, the probe of J I2200 type laser-doppler microcirculatory blood flow meter was fixed at the cranial window, and the probe was maintained without displacement and rotation during the whole test. The microcirculatory blood flows before ligation and 5, 15, 30, 45 and 60 min after ligation were recorded, and the data of the animals in the drug-treatment groups were recorded at the same time points. The mean microcirculatory blood flow observed within 1 min at each time point was designated as the microcirculatory blood flow of the respective time point.

[4] = tested on: Bcl-2; assay: Immunohistochemistry protein expression in I/R myocardial tissue: Bcl-2; details: 1 mL/kg, 5 days; ischemia 30 min, reperfusion 2 h
Experimental: as §1, §2

[5] = tested on: Bax; assay: Immunohistochemistry protein expression in I/R myocardial tissue: Bax; details: 1 mL/kg, 5 days; ischemia 30 min, reperfusion 2 h
Experimental: as §1, §2

[6] = tested on: PPARγ; assay: Immunohistochemistry protein expression in I/R myocardial tissue: PPARγ; details: 1 mL/kg, 5 days; ischemia 30 min, reperfusion 2 h
Experimental: as §1
Standard immunohistochemistry ABC and SP methods were employed for staining. Bax: anti-rabbit polyclonal antibody (Santa CruzBio. Inc.) at a dilution of 1:200; […]: anti-rabbit polyclonal antibody (TBD Tianjin Biotechnological Center). At a dilution of […]; caspase-3: anti-rabbit polyclonal antibody (Normarkers Fromont, Calif.), at a dilution of 1:200; MMP-2: anti-murine monoclonal antibody (NormarkersFromont, Calif.) at a dilution of 1:200; PPARγ: anti-caprine polyclonal antibody (Santa Cruz Bio. Inc.), at a dilution of 1:500. The specific procedures were performed in accordance with the instructions of the ABC and SP kits, DAB was used for color development, and neutral resin was used for mounting. PBS was used instead of the first antibody as a negative control. […]

[7] = tested on: MMP-2; assay: Immunohistochemistry protein expression in I/R myocardial tissue: MMP-2; details: 1 mL/kg, 5 days; ischemia 30 min, reperfusion 2 h
Experimental: as §1, §2

Q: With `O=C(O)C(O)Cc1ccc(O)c(O)c1` (stereo not drawn) [Salvianic acid, β-(3,4-dihydroxyphenyl)-α-hydroxyl-propionic acid, reference compound] as the molecule, how does the aar/lv [1] read?
A: Its aar/lv is 50.21 ± 7.10 %.

Q: And the nec/aar [1]?
A: The nec/aar was 49.87 ± 7.83 %.

Q: And the nec/lv [1]?
A: The nec/lv was 41.41 ± 5.49 %.

Q: And the “Caspase-3 protein expression, OD value” [2]?
A: The value was 0.21 ± 0.12.

Q: And the Microcirculatory blood flow ([3]; 5 min after ligation)?
A: The Microcirculatory blood flow was 10.8 ± 3.6 mL.

Q: What about the Microcirculatory blood flow ([3]; 15 min after ligation) of the same molecule?
A: The Microcirculatory blood flow was 20.1 ± 6.9 mL.

Q: What about the Microcirculatory blood flow ([3]; 30 min after ligation) of the same molecule?
A: The Microcirculatory blood flow was 31.2 ± 9.5 mL.

Q: And the Microcirculatory blood flow ([3]; 45 min after ligation)?
A: Its Microcirculatory blood flow is 33.0 ± 6.8 mL.

Q: What about the Microcirculatory blood flow ([3]; 60 min after ligation) of the same molecule?
A: The Microcirculatory blood flow was 29.4 ± 6.9 mL.

Q: And the “Bcl-2 protein expression, OD value” [4]?
A: Its value is 0.18 ± 0.04.

Q: What about the “Bax protein expression, OD value” [5] of the same molecule?
A: The value was 0.08 ± 0.02.

Q: What about the “PPARγ protein expression, OD value” [6] of the same molecule?
A: The value was 0.34 ± 0.08.

Q: What about the “MMP-2 protein expression, OD value” [7] of the same molecule?
A: Its value is 0.12 ± 0.05.
